This note sets out measurements from US5508419A, “Substituted triazoles as angiotensin II inhibitors” (Ortho Pharmaceutical Corporation, priority 1994, dated 1996).

Assay [1] addresses T1, angiotensin II receptor (angiotensin II-induced vasoconstriction in in vitro aortic rings) (Oryctolagus cuniculus, UniProt P34976).
T1 construct: thoracic aorta gently dissected free from the aortic root to the level of the diaphragm; from tissue; host or cells: rabbit (New Zealand white) thoracic aorta rings
T1 sequence (P34976 1-359): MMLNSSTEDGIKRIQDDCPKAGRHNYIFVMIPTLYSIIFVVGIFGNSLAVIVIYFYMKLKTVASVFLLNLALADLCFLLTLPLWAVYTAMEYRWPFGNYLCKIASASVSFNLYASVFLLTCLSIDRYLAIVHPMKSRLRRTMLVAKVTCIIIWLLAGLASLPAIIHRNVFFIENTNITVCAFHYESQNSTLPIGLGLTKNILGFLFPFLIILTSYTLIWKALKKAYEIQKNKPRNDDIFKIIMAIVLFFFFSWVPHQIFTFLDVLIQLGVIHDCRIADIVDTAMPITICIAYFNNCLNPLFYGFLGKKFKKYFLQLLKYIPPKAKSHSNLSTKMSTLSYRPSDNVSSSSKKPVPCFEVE
Nature of the assay: Inhibition of Angiotensin II Dose-Response in Rabbit Thoracic Aorta. The conditions noted are these: for Kb / pA2: rabbit thoracic aorta, negative logarithm of antagonist concentration causing 2-fold shift to the right of agonist potency; for Kb: read-out: pA2 (converted); for inhibition at 10 µM: read-out: % Inhib. @ 10 uM. It counts as cell-based, rabbit (New Zealand white). An excerpt: Inhibition of Angiotensin II Dose-Response in Rabbit Thoracic Aorta
Purpose: To identify competitive receptor antagonists of an angiotensin II-activity, 1 activity i.e., angiotensin II-induced vasoconstriction in in vitro aortic rings.
Procedure: 1.8 to 2.3 kg New Zealand white rabbits are sacrificed with an intravenous sodium pentobarbital overdose and the thoracic aorta gently dissected free from the aortic root to the level of the diaphragm, into ice cold Krebs bicarbonate buffer. The aorta is gently freed of clots and adventitia and cleanly cut with a scalpel into 5 mm segments. Each dng is suspended from a Gould isotonic force transducer in a tissue bath containing 15 mL oxygenated Krebs bicarbonate buffer regulated at 37° C. Initial tension is adjusted to 4.0 g and equilibrated over three 20-min wash periods to achieve a baseline tension of 3.0 g. Graded angiotensin II doses are given cumulatively to achieve a maximal contraction. Three 20-min washes are pedormed to remove the initial angiotensin II effect. The test compound is then given at a screening concentration of 1.0×10^-5 M. After observing any effects of the test compound alone, the angiotensin II cumulative dose-response is then repeated in the presence of the test compound.
Analysis: Angiotensin II vasoconstdctor tension in grams is expressed as a percent of maximal contraction for the before and after test compound angiotensin II dose-responses. Angiotensin II ED50 and ED90 is determined from the angiotensin II dose-response curves generated before and after test compound.
Controls: Test compounds are dissolved in DMSO vehicle and DMSO vehicle alone is tested in two rings as a vehicle control in each screening experiment.
pA2 is the negative logarithm of the antagonist concentration that causes a 2-fold shift to the right (i.e. decrease) in the potency of the agonist or the negative logarithm of the antagonist concentration that cuts the potency of the agonist in half.

For another assay, the system named is plasma renin activity. Nature of the assay: Plasma renin activity (PRA, RIA) in salt-depleted rats. Type of assay: in vivo, rat (Sprague-Dawley). The conditions noted are these: after DuP-753 treatment of salt-depleted rats, 0.7 before and about 7.4 after salt depletion.
The subject of a further assay is angiotensin II receptor. The assay is described as follows: Screening Potential Angiotensin II Receptor Antagonists in Salt-Depleted Normotensive Rats (blood pressure). Type of assay: in vivo, rat (Sprague-Dawley). On the procedure:
Method; Male 350-450 g Sprague-Dawley rats are implanted with teflon microcannulae via the middle caudal artery under 20 mg/kg intravenous brevital anesthesia and permitted a 4-7 day surgical recovery period. Throughout recovery and testing animals are individually housed unrestrained in standard rat metabolism cages and receive continuous 0.5 ml/h intra-arterial 0.25N saline infusion through a spring-shielded swivelling tether connected to an infusion/blood pressure recording system to maintain arterial cannula patency. […] […] Three hours after the second furosemide dose, rats are given test compound uniformly suspended in 1% methylcellulose (n=3/dose level) or 1 mL 1% methylcellulose vehicle (n=3) orally by gavage and blood pressure is continuously recorded for 24 h using a Buxco computerized data recording system. Compound-induced changes in blood pressure are compared to concurrent vehicle control blood pressures in order to detect drug effect.
Interpretation: Prior to salt depletion, normotensive rats typically show a plasma renin activity (PRA, ng angiotensin I/mL plasma/h, RIA) of 0.7. After the salt-depletion protocol PRA values taken 3 h after the furosemide dose have risen to about 7.4.
Compounds that decrease blood pressure 10 or more mmHg (MAP) compared to concurrent control after oral dosing are considered active in this test. Maximum possible response is about -35 mmHg. […]

Take `CCCCc1nc(SCc2ccc(-c3ccccc3C(=O)O)cc2)nn1Cc1ccc(-c2ccccc2C(=O)O)cc1` [Compound 2, Disodium 5-Butyl-1,3-bis-[4-(2'-carboxyphenyl)benzyl]mercapto-1,2,4-triazole]: in assay [1], the Kb is 0.00324 µM and the inhibition at 10 µM worked out at 100%. As for `CC(C)Cc1nc(SCc2ccc(-c3ccccc3C(=O)O)cc2)nn1Cc1ccc(-c2ccccc2C(=O)O)cc1` [Compound 4, Sodium 5-isobutyl-1,3-bis-[4-(2'-carboxyphenyl)benzyl]mercapto-1,2,4-triazole], in assay [1], the Kb was 0.0324 µM and the inhibition at 10 µM was 100%. `CCCCCc1nc(SCc2ccc(-c3ccccc3C(=O)O)cc2)nn1Cc1ccc(-c2ccccc2C(=O)O)cc1` [Compound 6, 5-Pentyl-1,3-bis-[4-(2'-carboxyphenyl)benzyl]mercapto-1,2,4-triazole]: in assay [1], the pA2 was 8.39 and the inhibition at 10 µM came out at 100%. Consider `CCCCCCc1nc(SCc2ccc(-c3ccccc3C(=O)OC)cc2)nn1Cc1ccc(-c2ccccc2C(=O)OC)cc1` [Compound 8, 5-Hexyl-1,3-bis-[4-(2'-carbomethoxyphenyl)benzyl]mercapto-1,2,4-triazole], for which, in assay [1], the Kb is 0.011 µM and the inhibition at 10 µM amounted to 100%. As for `CCCCCCCc1nc(SCc2ccc(-c3ccccc3C(=O)OC)cc2)nn1Cc1ccc(-c2ccccc2C(=O)OC)cc1` [Compound 9, 5-Heptyl-1,3-bis-[4-(2'-carbomethoxyphenyl)benzyl]mercapto-1,2,4-triazole], in assay [1], the inhibition at 10 µM is 2%. Take `CCCCCCCc1nc(SCc2ccc(-c3ccccc3C(=O)O)cc2)nn1Cc1ccc(-c2ccccc2C(=O)O)cc1` [Compound 10, 5-Heptyl-1,3-bis-[4-(2'-carboxyphenyl)benzyl]mercapto-1,2,4-triazole]: in assay [1], the Kb is 0.186 µM and the inhibition at 10 µM was 97%. Regarding `CCCCCc1nc(SCc2ccc(-c3ccccc3C#N)cc2)nn1Cc1ccc(-c2ccccc2C(=O)O)cc1` [Compound 12], the inhibition at 10 µM in assay [1] was 79%. With `CCCCCc1nc(SCc2ccc(-c3ccccc3C(=O)OC)cc2)nn1Cc1ccc(-c2ccccc2-c2nn[nH]n2)cc1` [Compound 16, 3-[4-(2'-Carbomethoxyphenyl)benzyl]mercapto-5-pentyl-1-[4-(2'-tetrazolophenyl)benzyl]-1,2,4-triazole hemihydrate], the Kb in assay [1] is 10 µM.

Turning to `CCCCCc1nc(SCc2ccc(-c3ccccc3C(=O)OC)cc2)n(Cc2ccc(-c3ccccc3C(=O)OC)cc2)n1` [Compound 21, 5-Pentyl-2,3-bis-[4-(2'-carbomethoxyphenyl)benzyl]mercapto-1,2,4-triazole], the inhibition at 10 µM in assay [1] was determined as 4%. In the case of `CCCCCc1nc(SCc2ccc(-c3ccccc3C(=O)O)cc2)n(Cc2ccc(-c3ccccc3C(=O)O)cc2)n1` [Compound 23, 5-Pentyl-2,3-bis-[4-(2'-carboxyphenyl)benzyl]mercapto-1,2,4-triazole], in assay [1], the pA2 was 7.19 and the inhibition at 10 µM was 100%.

As to `CCCCCCCc1nc(SCc2ccc(-c3ccccc3C(=O)OC)cc2)n(Cc2ccc(-c3ccccc3C(=O)OC)cc2)n1` [Compound 25, 5-Heptyl-2,3-bis-[4-(2'-carbomethoxyphenyl)benzyl]mercapto-1,2,4-triazole], the inhibition at 10 µM in assay [1] amounted to 1%. Consider `CCCCCCCc1nc(SCc2ccc(-c3ccccc3C(=O)O)cc2)n(Cc2ccc(-c3ccccc3C(=O)O)cc2)n1` [Compound 26], for which, in assay [1], the pA2 came out at 5.88 and the inhibition at 10 µM stood at 48%. As to `CCCCCCCCc1nc(S(=O)(=O)Cc2ccc(-c3ccccc3C(=O)O)cc2)nn1Cc1ccc(-c2ccccc2C(=O)O)cc1` [Compound 38, 1-[(2'-Carboxyphenyl)benzyl]-3-[(2'-carboxyphenyl)benzylsulfonyl]-5-octyl-1,2,4-triazole hydrate], in assay [1], the Kb was 0.813 µM and the inhibition at 10 µM was 87%. For `CCCCCCCc1nc(S(=O)(=O)Cc2ccc(-c3ccccc3C(=O)O)cc2)nn1Cc1ccc(-c2ccccc2C(=O)O)cc1` [Compound 39, 1-[(2'-Carboxyphenyl)benzyl]-3-[(2'-carboxyphenyl)benzylsulfonyl]-5-heptyl-1,2,4-triazole hydrate], in assay [1], the Kb was 0.324 µM and the inhibition at 10 µM is 89%. For `CCCCCCc1nc(S(=O)(=O)Cc2ccc(-c3ccccc3C(=O)O)cc2)nn1Cc1ccc(-c2ccccc2C(=O)O)cc1` [Compound 40, 1-[(2'-Carboxyphenyl)benzyl]-3-[(2'-carboxyphenyl)benzylsulfonyl]-5-hexyl-1,2,4-triazole 0.5 hydrate], in assay [1], the Kb was 0.00891 µM and the inhibition at 10 µM was found to be 100%. `CCCCc1nc(Cl)c(CO)n1Cc1ccc(-c2ccccc2-c2nn[nH]n2)cc1` [DuP-753]: the “plasma renin activity (PRA)” value in the assay on plasma renin activity is “about 41.4 ng angiotensin I/mL plasma/h”. In addition, in the assay on angiotensin II receptor (normotensive rats that have not been salt-depleted), the blood pressure change entry was “does not change”. The “blood pressure decrease (mean arterial pressure, MAP)” value in the assay on angiotensin II receptor (salt-depleted rats (furosemide, low sodium diet), typical response) is reported as “about 35 mmHg”.

One may read the pA2 as a measure of antagonist potency on a negative log scale.
